# Like-named read-outs stand apart in the source and are kept apart here.
# Test system: T. brucei lysate proteins
# Format: binding, Trypanosoma brucei
# Details: vehicle control = 1
smiles,measurement,setting,value
"Nc1nc2c(c(=O)[nH]1)N(C=O)C(CNc1ccc(C(=O)N[C@@H](CCC(=O)O)C(=O)O)cc1)CN2 (stereo partly drawn) [LEU, leucovorin]",fold change,"protein TB427.06.3630 SPHINGOSINE 1-PHOSPHATE LYASE, PUTATIVE",0.94
same,fold change,"protein TB427.06.3670 PAR[…] COMPONENT, PUTATIVE",0.77
same,fold change vs vehicle control,"protein TB427.06.4480 VALYL-TRNA SYNTHETASE, PUTATIVE",1.07
same,fold change,"protein TB427.06.4740 IMPORTIN-ALPHA RE-EXPORTER PROTEIN, PUTATIVE",1.22
same,fold change,"protein TB427.06.700 ALANYL-TRNA SYNTHETASE, PUTATIVE",0.94
same,fold change vs vehicle control,"protein TB427.07.1300 PROTEIN DISULFIDE ISOMERASE, PUTATIVE",1.76
same,fold change,"protein TB427.07.1420 HY[…], CONSERVED",0.96
same,fold change,"protein TB427.07.2340 40S RIBOSOMAL PROTEIN S15, PUTATIVE",0.96
same,fold change vs vehicle control,"protein TB427.07.3160 DYNEIN HEAVY CHAIN, CYTOSOLIC, PUTATIVE",0.86
same,fold change,"protein TB427.07.3530 HY[…], CONSERVED",0.87
same,fold change,"protein TB427.07.4180 FATTY ACID ELONGASE, PUTATIVE",0.95
same,fold change,"protein TB427.07.4970 GLUTAMINE SYNTHETASE, PUTATIVE",0.91
same,fold change vs vehicle control,"protein TB427.07.7500 THYMINE-7-HYDROXYLASE, PUTATIVE",0.97
same,fold change,"protein TB427.08.2060 HY[…], CONSERVED",0.77
same,fold change,"protein TB427.08.3490 HY[…], CONSERVED",1
same,fold change,"protein TB427.08.3520 HY[…], CONSERVED",0.94
same,fold change,"protein TB427.08.3870 HY[…], CONSERVED",1.66
same,fold change,protein TB427.08.5460 FLAGELLAR CALCIUM-BINDING PROTEIN,1.21
same,fold change,"protein TB427.08.5760 HY[…], CONSERVED",0.93
same,fold change,"protein TB427.08.6390 LYSOPHOSPHOLIPASE, PUTATIVE",1.26
same,fold change,"protein TB427.08.650 CATION-TR[…], PUTATIVE",0.8
same,fold change,"protein TB427.10.10020 HY[…], CONSERVED",0.93
same,fold change,"protein TB427.10.10350 PROTEIN KINASE, PUTATIVE",0.95
same,fold change,"protein TB427.10.10360 MICROTUBULE-[…], PUTATIVE",0.82
same,fold change,"protein TB427.10.1060 T-COMPLEX PROTEIN 1, DELTA SUBUNIT, PUTATIVE",1.18
same,fold change vs vehicle control,"protein TB427.10.10610 PROTEIN TYROSINE PHOSPHATASE, PUTATIVE",2.13
same,fold change vs vehicle control,"protein TB427.10.1100 60S RIBOSOMAL PROTEIN L9, PUTATIVE",1.1
same,fold change vs vehicle control,protein TB427.10.11760 PUMILIO/PUF RNA BINDING PROTEIN 6,0.98
same,fold change,"protein TB427.10.12710 HEAT SHOCK PROTEIN, PUTATIVE",2.54
same,fold change vs vehicle control,"protein TB427.10.12820 HY[…], CONSERVED",1.13
same,fold change,protein TB427.10.14140 PYRUVATE KINASE 1,1.34
same,fold change vs vehicle control,"protein TB427.10.14470 INTR[…] PROTEIN IFT140, PUTATIVE",1.07
same,fold change,"protein TB427.10.14890 C-TERMINAL MOTOR KINESIN, PUTATIVE",1.36
same,fold change,protein TB427.10.2020 HEXOKINASE,1.68
same,fold change,"protein TB427.10.2290 CHAPERONE PROTEIN DNAJ, PUTATIVE",0.89
same,fold change,"protein TB427.10.2350 PYRUVATE DEH[…] E3 BINDING PROTEIN, PUTATIVE",0.89
same,fold change,"protein TB427.10.4610 […]-MANNOSE SYNTHASE, PUTATIVE",0.94
same,fold change vs vehicle control,"protein TB427.10.5810 HY[…], CONSERVED",2.19
same,fold change,"protein TB427.10.5840 T[…] 1-BETA, PUTATIVE",1.21
same,fold change,"protein TB427.10.5850 HY[…], CONSERVED",0.84
same,fold change,"protein TB427.10.6150 […]/BEIGE PROTEIN, PUTATIVE",0.73
same,fold change,"protein TB427.10.6310 MAJOR VAULT PROTEIN, PUTATIVE",0.82
same,fold change,"protein TB427.10.730 ATP SYNTHASE, PUTATIVE",0.81
same,fold change vs vehicle control,"protein TB427.10.7410 SUCCINYL-COA LIGASE GDP-FORMING] BETA-CHAIN, PUTATIVE",1.13
same,fold change vs vehicle control,"protein TB427.10.7630 HY[…], CONSERVED",1.07
same,fold change vs vehicle control,protein TB427.10.8230 PROTEIN DISULFIDE ISOMERASE,2.42
same,fold change,"protein TB427.10.8910 HY[…], CONSERVED",0.93
same,fold change vs vehicle control,"protein TB927.10.12700 PYRUVATE DEHYDROGENASE E1 ALPHA SUBUNIT, PUTATIVE",0.9
same,fold change,"protein TB927.10.12740 HY[…], CONSERVED,ZINC FINGER PROTEIN FAMILY MEMEBER, PUTATIVE",1.1
same,fold change,"protein TB927.10.12840 MIT[…] PROTEIN, PUTATIVE",0.92
same,fold change vs vehicle control,protein TB927.10.13290 ETHANOLAMINE PHOSPHOTRANSFERASE (EPT),0.95
same,fold change vs vehicle control,"protein TB927.10.14800 PROTEIN KINASE, PUTATIVE",1.13
same,fold change,protein TB927.10.1550 […]-ATP-ASE SUBUNIT 5,0.94
same,fold change vs vehicle control,protein TB927.10.2890 ENOLASE,1.93
same,fold change,protein TB927.10.2980 […]-ATPASE SUBUNIT 11,0.91
same,fold change vs vehicle control,protein TB927.10.4570 […] 2,1.87
same,fold change,"protein TB927.10.4690 DYNEIN LIGHT CHAIN, PUTATIVE",0.96
same,fold change,"protein TB927.10.5370 40S RIBOSOMAL PROTEIN S10, PUTATIVE",1
same,fold change vs vehicle control,"protein TB927.10.540 ATP-DEPENDENT DEAD/H RNA HELICASE, PUTATIVE",1.4
same,fold change,"protein TB927.10.5500 HY[…], CONSERVED",0.99
same,fold change vs vehicle control,"protein TB927.10.560 40S RIBOSOMAL PROTEINS S11, PUTATIVE",1.35
same,fold change,protein TB927.10.6050 CLATHRIN HEAVY CHAIN,0.82
same,fold change vs vehicle control,"protein TB927.10.8030 HY[…], CONSERVED",0.97
same,fold change vs vehicle control,"protein TB927.10.8160 HY[…], CONSERVED",0.94
same,fold change,"protein TB927.2.100 RETRO[…] SPOT (RHS) PROTEIN, PUTATIVE,RETRO[…] SPOT PROTEIN 1 (RHS1), PUTATIVE",1.21
same,fold change vs vehicle control,protein TB927.2.2440 […]-ATPASE SUBUNIT 6,1.21
same,fold change,"protein TB927.2.3800 MRNA […], PUTATIVE",0.96
same,fold change,"protein TB927.3.1240 PROTEIN PHOSPHATASE 2A, PUTATIVE",0.82
same,fold change,"protein TB927.3.1840 3-OXO-5-ALPHA-STEROID 4-DEHYDROGENASE, PUTATIVE",0.93
same,fold change vs vehicle control,protein TB927.3.2960 INOSINE-ADENOSINE-GUANOSINE-[…],2.01
same,fold change,"protein TB927.3.3190 SERINE/THREONINE-PROTEIN KINASE, PUTATIVE",0.93
same,fold change vs vehicle control,"protein TB927.3.3450 ADP-RI[…]-LIKE PROTEIN 3A, PUTATIVE",2.74
same,fold change vs vehicle control,"protein TB927.3.3490 HIGH MOBILITY GROUP PROTEIN, PUTATIVE",1.29
same,fold change vs vehicle control,"protein TB927.3.5120 HY[…], CONSERVED (Ankyrin repeats (3 copies), putative)",1.41
same,fold change vs vehicle control,"protein TB927.3.740 HY[…], CONSERVED",0.99
same,fold change vs vehicle control,"protein TB927.4.2740 HY[…], CONSERVED (p25-alpha, putative)",2.04
same,fold change,"protein TB927.4.3590 T[…] 1-BETA, PUTATIVE",1.21
same,fold change vs vehicle control,"protein TB927.4.3820 HY[…], CONSERVED",0.99
same,fold change,"protein TB927.5.1630 HY[…], CONSERVED",0.83
same,fold change vs vehicle control,"protein TB927.5.4440 DYNEIN LIGHT CHAIN, PUTATIVE",1.1
same,fold change,"protein TB927.6.2200 HY[…], CONSERVED",0.98
same,fold change vs vehicle control,"protein TB927.6.3740 HEAT SHOCK 70 KDA PROTEIN, MIT[…], PUTATIVE",1.13
same,fold change,protein TB927.6.4980 40S RIBOSOMAL PROTEIN S14,0.97
same,fold change vs vehicle control,"protein TB927.7.1750 60S RIBOSOMAL PROTEIN L7, PUTATIVE",1.49
same,fold change vs vehicle control,"protein TB927.7.4470 HY[…], CONSERVED",1.31
same,fold change vs vehicle control,"protein TB927.7.7430 ATP SYNTHASE ALPHA CHAIN, MIT[…]",1.2
same,fold change,protein TB927.8.4330 SMALL GTP-BINDING PROTEIN RAB11,0.97
same,fold change,protein TB927.8.4770 SMALL GTP-BINDING PROTEIN RAB18,0.93
same,fold change vs vehicle control,protein TB927.8.4810 PROHIBITIN 1,0.99
same,fold change,protein TB-292 MEMBRANE ASSOCIATED PROTEIN,0.88

# Reference: publication PMC6199744, “Development of Chemical Proteomics for the Folateome and Analysis of the Kinetoplastid Folateome” (ACS Infectious Diseases, 2018)
